Assay results published in patent US8008329B2 (Dong Wha Pharmaceutical Co., Ltd., priority 2008, dated 2011).
Marks after values point to notes of the source that are not given here.

System: osteoclast differentiation
Test: Osteoclast differentiation in co-culture of mouse bone marrow cells and ST2 cells, TRAP staining (Examples 8-9)
Format: cell-based
Conditions: for % number of osteoclast (vs. solvent control group): 0.1 μM each, day 7; for activity at 0.1 µM: Mus musculus, Osteoclast, 168 h, Individual treatment (compounds), day 7, read-out: % number of osteoclast (vs. solvent control group)
Protocol: The differentiation of osteoclast from mouse bone marrow cells was induced by using co-culture system, and inhibitory effect of the drug on osteoclast differentiation was evaluated by treatment of single or combination formulation. Co-culture was performed using mouse bone marrow cells and ST cells of bone marrow-derived stromal cell.
Femora and tibia were aseptically ectomized from 6˜8 week-old male ddY mice to harvest bone marrow cells by a general method using a syringe. The red blood cells were removed from the bone marrow cells, followed by centrifugation. The bone marrow cells were suspended in α-MEM medium supplemented with 10% fetal bovine serum, and the numbers of the eukaryotic cells in the harvested bone marrow cells were counted and then immediately used for a co-culture system.
ST2 cells (RIKEN Cell Bank, Tsukuba, Japan) were cultured in α-MEM medium supplemented with 10% fetal bovine serum until confluent. Then, these cells were diluted to a desired cell number, and used for the experiment.
The bone marrow cells (1×10^5 cells/well) and ST2 cells (3,000 cells/well) prepared in the above were plated in a 96-well plate using α-MEM medium supplemented with 10% fetal bovine serum. At this time, differentiation factors, 1α,25-dihydroxyvitamin D3 (10^−8 M, hereinbelow, referred to as vitamin D3) and dexamethasone (10^−8 M), were co-added to the medium to induce osteoclast differentiation. The medium was replaced with fresh media containing the differentiation factors every 2 to 3 days.
After 7 days, when multinucleated osteoclasts were observed, the medium was removed from the wells, and then the cells were fixed with PBS containing 10% Formalin. Tartrate-Resistant Acid Phosphatase (hereinbelow, referred to as TRAP) was used as a marker to measure the mature osteoclast in consideration of its characteristics showing a positive reaction to a TRAP staining solution. The TRAP staining solution was prepared in such the manner that a substrate, naphtol AS-MS phosphate and a coloring agent (Fast Red Violet LB salt) were dissolved in N,N-dimethylformamide. A 0.1 N NaHCO3 buffer solution containing 50 mM tartaric acid was added thereto, and the mixture was stored at a refrigerator prior to use as a staining solution. The osteoclasts with 6-7 or more nuclei showing a TRAP-positive reaction were counted under a microscope.
Alendronic acid was dissolved in distilled water at a concentration of 0.1 mM, and benzamidine derivatives were dissolved in DMSO at a concentration of 0.1 mM. All of them were diluted 1,000 fold with the differentiation media to a final concentration of 0.1 μM, respectively. In this connection, a control group was maintained in 0.1% DMSO.
As the above described, the sample substances and cells, which were diluted to the desired concentrations, were plated in 96-well plate, and co-cultured. On days 3 and 5 of culture, the media were replaced with fresh differentiation media containing the sample substances. On day 7 of culture, TRAP staining was performed to count the mature multinucleated osteoclast that was formed by differentiation. The mature osteoclasts with 6 or more nuclei were counted under a microscope. The results were expressed as a percentage (%) of the number of mature osteoclast observed in each experimental group, when the number of mature osteoclast in the control group (solvent only) was regarded as 100%. The experiment was performed with 4 wells per experimental group (n=4), and the results were expressed as mean value±standard deviation. In addition, the experiment was repeated at least two times, and Student t-test was applied for significant difference between experimental groups.
The experiment was performed in the same manner as in Example 8 to evaluate the effect of individual or combination treatment of risedronic acid and benzamidine derivatives of Formula 1 on osteoclast differentiation, except using 0.1 μM risedronic acid instead of 0.1 μM alendronic acid. […]

[1] = Combination treatment (alendronic acid + compounds)
[2] = Combination treatment (risedronic acid + compounds)

SMILES	% number of osteoclast (vs. solvent control group) [1]	% number of osteoclast (vs. solvent control group) [2]	activity at 0.1 µM [%]
CNc1nc(-c2ccc(OCCCCCOc3ccc(C(=N)NO)cc3)cc2)c(CN2CCOCC2)s1 [Compound 335, N-hydroxy-4-{5-[4-(2-methylamino-5-morpholin-4-ylmethyl-thiazol-4-yl)-phenoxy]-pentyloxy}-benzamidine]	41 ± 2.0^ab %	23 ± 5.0^ac %	54 ± 0.9
Cc1nc(-c2ccc(OCCCCCOc3ccc(C(=N)NO)cc3)cc2)c(CCNC2CCCCC2)s1 [Compound 223, N-hydroxy-4-(5-{4-[5-(2-cyclohexylamino-ethyl)-2-methyl-thiazol-4-yl]-phenoxy}-pentyloxy)-benzamidine]	73 ± 8.2%	60 ± 12.6%	81 ± 3.8
N=C(NO)c1ccc(OCCCCCOc2ccc(-c3nc(C4CCCCC4)sc3CCNC3CC3)cc2)cc1 [Compound 252, N-hydroxy-4-(5-{4-[2-cyclohexyl-5-(2-cyclopropylamino-ethyl)-thiazol-4-yl]-phenoxy}-pentyloxy)-benzamidine]	33 ± 6.6^b %	19 ± 4.0^ac %	44 ± 2.7
Cc1nc(-c2ccc(OCCCCCOc3ccc(C(=N)NO)cc3)cc2)c(CCNCCCn2ccnc2)s1 [Compound 218, N-hydroxy-4-[5-(4-{5-[2-(3-imidazol-1-yl-propylamino)-ethyl]-2-methyl-thiazol-4-yl}-phenoxy)-pentyloxy]-benzamidine]	39 ± 10.4^b %	25 ± 7.5^ac %	56 ± 1.9
CCc1sc(N(C)Cc2ccccc2)nc1-c1ccc(OCCCCCOc2ccc(C(=N)NO)cc2)cc1 [Compound 133, N-hydroxy-4-[5-{4-[2-(benzyl-methyl-amino)-5-ethyl-1,3-thiazol-4-yl]phenoxy}pentyloxy]-benzamidine]	42 ± 8.3^b %	25 ± 5.7^ac %	54 ± 8.3
Cc1nc(-c2ccc(OCCCCCOc3ccc(C(=N)NO)cc3)cc2)c(CNCCCn2ccnc2)s1 [Compound 303, N-hydroxy-4-[5-(4-{5-[(3-imidazol-1-yl-propylamino)-methyl]-2-methyl-thiazol-4-yl}-phenoxy)-pentyloxy]-benzamidine]	12 ± 2.5^ab %	8 ± 2.2^ac %	53 ± 10.7
CNc1nc(-c2ccc(OCCCCCOc3ccc(C(=N)NO)cc3)cc2)c(CC2CCCC2)s1 [Compound 109, N-hydroxy-4-{5-[4-(5-cyclopentylmethyl-2-methylamino-1,3-thiazol-4-yl)phenoxy]pentyloxy}-benzamidine]	49 ± 9.8^b %	30 ± 6.5^ac %	60 ± 9.6
CCc1sc(N(Cc2cccnc2)Cc2cccnc2)nc1-c1ccc(OCCCCCOc2ccc(C(=N)NO)cc2)cc1 [Compound 137, N-hydroxy-4-[5-(4-{2-[bis-(pyridin-3-ylmethyl)amino]-5-ethyl-1,3-thiazol-4-yl}phenoxy)pentyloxy]-benzamidine]	11 ± 4.3^b %	7 ± 2.2^ac %	19 ± 2.9
N=C(NO)c1ccc(OCCCCCOc2ccc(-c3nc(N4CCOCC4)sc3N3CCSCC3)cc2)cc1 [Compound 291, N-hydroxy-4-{5-[4-(2-morpholin-4-yl-5-thiomorpholin-4-yl-thiazol-4-yl)-phenoxy]-pentyloxy}-benzamidine]	20 ± 3.8^ab %	12 ± 3.5^ac %	44 ± 4.9
CNC(=O)c1sc(C)nc1-c1ccc(OCCCCCOc2ccc(C(=N)NO)cc2)cc1 [Compound 282, N-hydroxy-4-{5-[4-(5-methylcarbamoyl-2-methyl-thiazol-4-yl)-phenoxy]-pentyloxy}-benzamidine]	49 ± 9.9^ab %	45 ± 5.2^ac %	73 ± 7.1
Cc1nc(-c2ccc(OCCCCCOc3ccc(C(=N)NO)cc3)cc2)c(CCNC(C)C)s1 [Compound 219, N-hydroxy-4-(5-{4-[5-(2-isopropylamino-ethyl)-2-methyl-thiazol-4-yl]-phenoxy}-pentyloxy)-benzamidine]	51 ± 5.4^b %	40 ± 3.8^c %	61 ± 10.5
N=C(NO)c1ccc(OCCCCCOc2ccc(-c3nc(-c4cccnc4)sc3CCCl)cc2)cc1 [Compound 80, N-hydroxy-4-{5-[4-(5-(2-chloroethyl)-2-(pyridin-3-yl)-1,3-thiazol-4-yl)phenoxy]pentyloxy}-benzamidine]	42 ± 9.9^b %	38 ± 3.7^ac %	65 ± 1.4
CNc1nc(-c2ccc(OCCCCCOc3ccc(C(=N)NO)cc3)cc2)c(CCCl)s1 [Compound 115, N-hydroxy-4-{5-[4-(5-(2-chloroethyl)-2-methylamino-1,3-thiazol-4-yl)phenoxy]pentyloxy}-benzamidine]	51 ± 8.9%	45 ± 8.3^ac %	77 ± 12.4
Cc1nc(-c2ccc(OCCCCCOc3ccc(C(=N)NO)cc3)cc2)cs1 [Compound 3, N-hydroxy-4-{5-[4-(2-methyl-1,3-thiazol-4-yl)phenoxy]pentyloxy}-benzamidine]	40 ± 4.6^b %	33 ± 6.8^c %	52 ± 8.9
N=C(NO)c1ccc(OCCCCCOc2ccc(-c3nc(NC(=O)c4cccnc4)sc3CC3CCCC3)cc2)cc1 [Compound 89, N-hydroxy-4-{5-[4-(5-cyclopentylmethyl-2-(3-pyridylcarbonyl)amino-1,3-thiazol-4-yl)phenoxy]pentyloxy}-benzamidine]	38 ± 1.9^ab %	39 ± 2.7^ac %	58 ± 5.1
CCc1sc(N2CCN(C)CC2)nc1-c1ccc(OCCCCCOc2ccc(C(=N)NO)cc2)cc1 [Compound 174, N-hydroxy-4-{5-(4-[5-ethyl-2-(4-methylpiperazino)-1,3-thiazol-4-yl]phenoxy)pentyloxy}-benzamidine]	46 ± 2.6^ab %	35 ± 5.1^ac %	70 ± 2.5
Cc1sc(NC(=O)CO)nc1-c1ccc(OCCCCCOc2ccc(C(=N)NO)cc2)cc1 [Compound 90, N-hydroxy-4-{5-[4-(2-hydroxyacetylamino-5-methyl-1,3-thiazol-4-yl)phenoxy]pentyloxy}-benzamidine]	54 ± 8.6^ab %	39 ± 8.4^ac %	87 ± 10
CN(Cc1cccnc1)c1nc(-c2ccc(OCCCCCOc3ccc(C(=N)NO)cc3)cc2)c(CC2CCCC2)s1 [Compound 147, N-hydroxy-4-[5-(4-{5-cyclopentylmethyl-2-[methyl-(pyridin-3-ylmethyl)amino]-1,3-thiazol-4-yl}phenoxy)pentyloxy]-benzamidine]	31 ± 3.2^ab %	14 ± 3.0^ac %	46 ± 4.1
Cc1sc(N2CCOCC2)nc1-c1ccc(OCCCCCOc2ccc(C(=N)NO)cc2)cc1 [Compound 165, N-hydroxy-4-{5-[4-(5-methyl-2-morpholino-1,3-thiazol-4-yl)phenoxy]pentyloxy}-benzamidine]	29 ± 7.5^ab %	30 ± 3.1^ac %	75 ± 3.8
